Eleven compounds from BindingDB's records for doi:10.1016/j.bmcl.2004.05.088 (Eli Lilly, 2004) can be followed below.

Counter-ions that a name gives are not always drawn.

Common to all, as to test: CDK Kinase Inhibition Assay
The target in experiment [1] is Cyclin-dependent kinase 4/G1/S-specific cyclin-D1 (Homo sapiens, UniProt P11802). The conditions noted are these: pH 7; 22 °C. As to the method:
(§1) In vitro CDK assay using purified enzyme, was incubated at room temperature with substrate, and test compounds in the presence of ATP/[gamma-33P]ATP. 33P incorporation was measured with a Top Count (Packard). IC50 is the inhibitor concentration which inhibits 50% of kinase activity that catalyzes the transfer of the terminal phosphate from 33P labeled ATP to the substrate.

Experiment [2] has as its target cAMP-dependent protein kinase catalytic subunit alpha (Bos taurus, UniProt P00517). The conditions noted are these: 25 °C.
Experiment [3] concerns the target Cyclin-dependent kinase 2/G1/S-specific cyclin-E1 (Homo sapiens, UniProt P24941). Conditions: 25 °C. As to the method:
as §1

Chain of Cyclin-dependent kinase 4/G1/S-specific cyclin-D1 (P11802 whole entry): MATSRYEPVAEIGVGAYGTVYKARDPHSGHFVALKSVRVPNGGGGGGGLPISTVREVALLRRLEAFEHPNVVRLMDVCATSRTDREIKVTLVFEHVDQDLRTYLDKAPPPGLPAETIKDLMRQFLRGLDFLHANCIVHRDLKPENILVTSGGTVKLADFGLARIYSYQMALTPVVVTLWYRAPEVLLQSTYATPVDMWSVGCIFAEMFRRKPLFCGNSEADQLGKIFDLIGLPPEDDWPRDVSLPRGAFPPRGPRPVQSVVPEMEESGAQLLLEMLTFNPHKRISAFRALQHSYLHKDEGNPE
Chain of Cyclin-dependent kinase 4/G1/S-specific cyclin-D1 (P24385 whole entry, further chain): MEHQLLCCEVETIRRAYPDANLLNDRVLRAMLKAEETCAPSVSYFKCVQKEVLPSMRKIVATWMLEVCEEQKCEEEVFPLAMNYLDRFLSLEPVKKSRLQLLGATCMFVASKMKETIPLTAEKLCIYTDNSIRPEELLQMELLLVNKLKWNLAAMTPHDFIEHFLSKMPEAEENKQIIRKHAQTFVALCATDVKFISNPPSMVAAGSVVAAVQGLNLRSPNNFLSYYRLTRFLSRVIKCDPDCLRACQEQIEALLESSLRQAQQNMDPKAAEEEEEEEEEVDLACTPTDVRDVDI

Usually IC50 stands for the concentration needed to halve the response being measured. Read a high IC50 as weaker potency. Regarding `O=C1NC(=O)c2c1c1c3cc(F)c(F)cc3[nH]c1c1c2c2cccc3c2n1CCNC3` [7,8-difluoro-1,4,14,24-tetraazaheptacyclo[16.8.1.0^{2,17}.0^{3,11}.0^{5,10}.0^{12,16}.0^{22,27}]heptacosa-2(17),3(11),5(10),6,8,12(16),18(27),19,21-nonaene-13,15-dione hydrochloride], the IC50 in experiment [1] is 110 nM; in experiment [2] it was over 2000 nM. `O=C1NC(=O)c2c1c1c3ccc(C(F)(F)F)c(CO)c3[nH]c1c1c2c2cccc3c2n1CCNC3` [6-(hydroxymethyl)-7-(trifluoromethyl)-1,4,14,24-tetraazaheptacyclo[16.8.1.0^{2,17}.0^{3,11}.0^{5,10}.0^{12,16}.0^{22,27}]heptacosa-2(17),3(11),5(10),6,8,12(16),18(27),19,21-nonaene-13,15-dione hydrochloride] registered an IC50 in experiment [1] of 44 nM.

Take `CC(C)N1CCn2c3c(cccc3c3c4c(c5c6ccccc6[nH]c5c32)C(=O)NC4=O)C1` [24-(propan-2-yl)-1,4,14,24-tetraazaheptacyclo[16.8.1.0^{2,17}.0^{3,11}.0^{5,10}.0^{12,16}.0^{22,27}]heptacosa-2(17),3(11),5(10),6,8,12(16),18(27),19,21-nonaene-13,15-dione]: the IC50 in experiment [1] was 78 nM; in experiment [2], over 2000 nM. The matching figures for `Cn1cnc(S(=O)(=O)N2CCn3c4c(cccc4c4c5c(c6c7ccccc7[nH]c6c43)C(=O)NC5=O)C2)c1` [24-[(1-methyl-1H-imidazole-4-)sulfonyl]-1,4,14,24-tetraazaheptacyclo[16.8.1.0^{2,17}.0^{3,11}.0^{5,10}.0^{12,16}.0^{22,27}]heptacosa-2(17),3(11),5(10),6,8,12(16),18(27),19,21-nonaene-13,15-dione]: 120 nM and over 2000 nM. For `NCC(=O)N1CCn2c3c(cccc3c3c4c(c5c6ccccc6[nH]c5c32)C(=O)NC4=O)C1` [24-(2-aminoacetyl)-1,4,14,24-tetraazaheptacyclo[16.8.1.0^{2,17}.0^{3,11}.0^{5,10}.0^{12,16}.0^{22,27}]heptacosa-2(17),3(11),5(10),6,8,12(16),18(27),19,21-nonaene-13,15-dione hydrochloride] the same measures were 100 nM and over 2000 nM. Turning to `O=C1NC(=O)c2c1c1c3ccccc3[nH]c1c1c2c2cccc3c2n1CCNC3` [1,4,14,24-tetraazaheptacyclo[16.8.1.0^{2,17}.0^{3,11}.0^{5,10}.0^{12,16}.0^{22,27}]heptacosa-2(17),3(11),5(10),6,8,12(16),18(27),19,21-nonaene-13,15-dione hydrochloride], the results for the concentration for half-maximal inhibition (IC50) in experiment [3] and in experiment [1] were 38 nM and 27 nM, respectively.

Take `O=C1NC(=O)c2c1c1c3ccccc3[nH]c1c1c2c2cccc3c2n1CCNCC3` [1,4,14,25-tetraazaheptacyclo[16.9.1.0^{2,17}.0^{3,11}.0^{5,10}.0^{12,16}.0^{22,28}]octacosa-2(17),3(11),5(10),6,8,12(16),18(28),19,21-nonaene-13,15-dione hydrochloride]: 160 nM corresponded to half-maximal inhibition in experiment [1] (IC50). As to `O=C1NC(=O)c2c1c1c3ccc(C(F)(F)F)cc3[nH]c1c1c2c2cccc3c2n1CCNC3` [7-(trifluoromethyl)-1,4,14,24-tetraazaheptacyclo[16.8.1.0^{2,17}.0^{3,11}.0^{5,10}.0^{12,16}.0^{22,27}]heptacosa-2(17),3(11),5(10),6,8,12(16),18(27),19,21-nonaene-13,15-dione hydrochloride], the half-maximal inhibitory concentration (IC50) in experiment [1] was 69 nM; in experiment [2] it was over 2000 nM. `O=C1NC(=O)c2c1c1c3cc(F)ccc3[nH]c1c1c2c2cccc3c2n1CCNC3` [8-fluoro-1,4,14,24-tetraazaheptacyclo[16.8.1.0^{2,17}.0^{3,11}.0^{5,10}.0^{12,16}.0^{22,27}]heptacosa-2(17),3(11),5(10),6,8,12(16),18(27),19,21-nonaene-13,15-dione hydrochloride] displayed an IC50 in experiment [1] of 34 nM.

For `CS(=O)(=O)N1CCn2c3c(cccc3c3c4c(c5c6ccccc6[nH]c5c32)C(=O)NC4=O)C1` [24-methanesulfonyl-1,4,14,24-tetraazaheptacyclo[16.8.1.0^{2,17}.0^{3,11}.0^{5,10}.0^{12,16}.0^{22,27}]heptacosa-2(17),3(11),5(10),6,8,12(16),18(27),19,21-nonaene-13,15-dione], the figures for the 50% inhibitory concentration (IC50) in experiment [1] and in experiment [2] were 53 nM and over 2000 nM, respectively. In experiment [3], `O=C1NC(=O)c2c1c1c3ccc(F)cc3[nH]c1c1c2c2cccc3c2n1CCNC3` [7-fluoro-1,4,14,24-tetraazaheptacyclo[16.8.1.0^{2,17}.0^{3,11}.0^{5,10}.0^{12,16}.0^{22,27}]heptacosa-2(17),3(11),5(10),6,8,12(16),18(27),19,21-nonaene-13,15-dione hydrochloride] returned a concentration for half-maximal inhibition (IC50) of 16 nM.
